# Laboratory results reported in US8148070B2, “Genetic polymorphisms associated with coronary events and drug response, methods of detection and uses thereof” (Celera Corporation, priority 2007, dated 2012).
# Test system: PROVE-IT patients
# Assay: PROVE-IT (PROVE IT-TIMI 22) genetic study: high-dose atorvastatin vs standard-dose pravastatin, death or major cardiovascular events by KIF6 719Arg carrier status
# Type: in vivo, human
# Protocol: Patients were followed for 18 to 36 months, with an average follow-up of 24 months.
# Of the 1,724 patients who met the criteria listed above, 1344 (78.0%) were male. […] This study was approved by institutional review boards of the Brigham and Women's Hospital and all participating centers.
# KIF6 genotypes were determined using allele—specific real-time PCR as previously described. Cox proportional hazard models (Wald tests) were used to assess the effect of atorvastatin-treatment on incident CHD in the KIF6 719Arg carriers and noncarriers. Continuous variables tested were age, baseline LDL-C, and baseline HDL-C levels. Categorical variables tested were smoking (current versus non-current), hypertension, and baseline diabetes. All reported p values are two-sided.
smiles,measurement,setting,value
"CC(C)c1c(C(=O)Nc2ccccc2)c(-c2ccccc2)c(-c2ccc(F)cc2)n1CC[C@@H](O)C[C@@H](O)CC(=O)O [Atorvastatin, atorvastatin]","HR, Model 1 (CHD, atorvastatin vs pravastatin)","ArgArg + ArgTrp (carriers), adjusted for sex, age, smoking, hypertension, diabetes, LDL-C, HDL-C, antibiotic",0.56
same,"HR, Unadjusted (CHD, atorvastatin vs pravastatin)","ArgArg + ArgTrp, 80 mg atorvastatin per day vs 40 mg pravastatin per day (ref)",0.57
same,On-trial CHD,"ArgArg + ArgTrp, totals 509 (atorvastatin), 502 (pravastatin)",76 Number of patients
same,"HR, Model 1 (CHD, atorvastatin vs pravastatin)","TrpTrp (noncarriers), adjusted",0.97
same,"HR, Unadjusted (CHD, atorvastatin vs pravastatin)","TrpTrp (noncarriers), pravastatin = ref",0.99
same,On-trial CHD,"TrpTrp, totals 359 (atorvastatin), 352 (pravastatin)",81 Number of patients
same,unadjusted hazard ratio at 30 days,"carriers of the KIF6 719Arg allele, 30 days after randomization, atorvastatin vs pravastatin",0.18
same,reduction of relative risk of coronary events,"carriers, high-dose atorvastatin vs standard-dose pravastatin",44%
same,benefit of intensive therapy compared with moderate therapy,"noncarriers, at any time point",no significant benefit
